Assay results published in paper PMC10350924, “Design, Synthesis, and Pharmacological Characterization of a Potent Soluble Epoxide Hydrolase Inhibitor for the Treatment of Acute Pancreatitis” (Journal of Medicinal Chemistry, 2023).

Tests used:
5-LOX = biological target: T1, 5-LOX (Homo sapiens, UniProt P09917); experiment: Cell-free 5-LOX activity assay; type: biochemical; design: made in house; host or cells: Escherichia coli Bl21 (DE3); details: human isolated 5-LOX
T1 sequence (P09917 1-674): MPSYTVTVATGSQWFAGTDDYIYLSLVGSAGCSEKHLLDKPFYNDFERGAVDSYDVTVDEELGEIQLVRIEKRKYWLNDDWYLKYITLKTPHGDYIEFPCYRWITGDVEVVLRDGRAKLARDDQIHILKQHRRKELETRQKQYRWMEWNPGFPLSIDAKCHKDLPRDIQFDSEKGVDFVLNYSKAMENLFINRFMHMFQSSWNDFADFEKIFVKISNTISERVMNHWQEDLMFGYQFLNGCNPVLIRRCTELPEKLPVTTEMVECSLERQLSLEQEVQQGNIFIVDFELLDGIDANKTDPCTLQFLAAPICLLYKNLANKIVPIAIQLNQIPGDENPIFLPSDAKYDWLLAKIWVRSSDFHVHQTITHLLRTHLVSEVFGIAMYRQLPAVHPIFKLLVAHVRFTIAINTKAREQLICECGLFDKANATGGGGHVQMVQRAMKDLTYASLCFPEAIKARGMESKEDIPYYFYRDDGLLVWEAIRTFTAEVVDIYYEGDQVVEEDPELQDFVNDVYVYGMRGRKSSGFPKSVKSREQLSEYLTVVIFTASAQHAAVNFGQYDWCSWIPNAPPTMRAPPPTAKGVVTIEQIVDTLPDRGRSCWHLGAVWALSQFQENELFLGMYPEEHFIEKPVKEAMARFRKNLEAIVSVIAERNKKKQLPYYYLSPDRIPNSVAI
Method: Human recombinant 5-LOX was expressed in Escherichia coli Bl21 (DE3) cells that were transformed with the plasmid pT3-5LO (wt 5-LOX) and purified on an adenosine triphosphate (ATP)-agarose column by affinity chromatography.[40],[41] In a first step, E. coli was lysed in 50 mM triethanolamine/HCl pH 8.0 with ethylenediamine tetraacetic acid (EDTA) (5 mM), soybean trypsin inhibitor (60 μg/mL), phenylmethanesulfonyl fluoride (1 mM), dithiothreitol (1 mM), and lysozyme (1 mg/mL) and sonicated 3 times for 15 s. The homogenate was centrifuged at 40,000g for 20 min at 4 °C. The supernatant was transferred to an ATP-agarose column (Sigma-Aldrich, Deisenhofen, Germany), which was sequentially washed with phosphate-buffered saline (PBS) pH 7.4, 1 mM EDTA, 50 mM phosphate buffer pH 7.4, 0.5 M NaCl, 1 mM EDTA, and finally 50 mM phosphate buffer pH 7.4 plus 1 mM EDTA. The enzyme was eluted with 50 mM phosphate buffer pH 7.4, 1 mM EDTA, and 20 mM ATP.
5-LOX product formation was started by the addition of 20 μM arachidonic acid (Sigma-Aldrich) and CaCl2 (2 mM) and stopped by the addition of an equal volume of ice-cold methanol containing PGB1 (200 ng) as internal standard after 10 min at 37 °C.

[1] = tested on: cerulein-induced acute pancreatitis; experiment: Cerulein-induced acute pancreatitis in mice; type: in vivo
Method: Male CD-1 mice (33–39 g, 8 weeks, Charles River Laboratories; Calco, Italy) were fed with standard rodent chow and water and acclimated for 4 days at a 12 h light and 12 h dark schedule in a constant air-conditioned environment (21 ± 2 °C). The mice were randomly assigned to groups, and experiments were carried out during the light phase. Experimental procedures were conducted in conformity with Italian (D.L. 26/2014) and European (directive 2010/63/EU) regulations on the protection of animals used for scientific purposes and approved by the Italian Ministry. Acute pancreatitis (AP) was induced in mice by intraperitoneal (i.p.) injections of cerulein (50 μg/kg) hourly (5 times).[56] The groups were: (a) Sham group which received saline i.p. hourly (×5); […] The mice were killed 6 h after the first cerulein injection. Blood samples were obtained by direct intracardiac puncture. Pancreases and lungs were removed immediately, frozen, and stored at −80 °C until assayed. Portions of these organs were also fixed in formaldehyde for histological and immunohistochemical examination. Pancreas and lung sections (6 μm) were stained for hematoxylin & eosin (H&E). Evaluation of pancreas edema and inflammation signs were performed with a three-point scoring system. […] Analysis was performed in a blinded manner. Evaluation of lung edema and inflammatory infiltration was performed with three-point scoring system: 0, absent; 1, mild; 2, moderate; 3, severe. […] Tissue sections were then incubated with normal goat serum (Vector Laboratories, Newark, California) for 20 min to reduce nonspecific antibody interactions. Sections were incubated with primary antibody diluted in 0.01 M PBS, 2.5% normal serum (anti-Neutrophils rat monoclonal antibody, dilution 1:100, Abcam) for 30 min. After rinsing with PBS 0.01 M for 5 min, slides were incubated with biotinylated goat anti-rat IgG (Vector Laboratories, Newark, California), diluted 1:200, for 30 min. After rinsing with PBS 0.01 M for 5 min, slides were incubated with VECTASTAIN ABC Reagent (Vector Laboratories, Newark, California) for 30 min. Color development was performed using […] 3,3′-diaminobenzidine solution (Sigma-Aldrich, Milan, Italy), and sections were analyzed using Leica Microsystem with a magnification of 20x. Semiquantitative determination of protein expression was obtained with ImageJ/Fiji software. Liver injury was assessed by measuring the rise in plasma levels of alanine aminotransferase (ALT, a specific marker for hepatic parenchymal injury) and aspartate aminotransferase (AST, a nonspecific marker for hepatic injury) 6 h after cerulein injection by a clinical laboratory. Results are expressed in international units per milliliter.

[2] = tested on: PGE2 production in LPS-stimulated J774 murine macrophages; experiment: PGE2 production in LPS-stimulated J774 macrophages; type: cell-based; details: Mus musculus; J774, 2 h pre-treatment 0.1–10 μM, LPS 10 μg/mL 24 h; read-out: IC50 for reduction of PGE2 levels
Method: Murine monocyte/macrophage J774 cell line was obtained from the American Type Culture Collection (ATTC TIB 67). The cell line was grown in adhesion in Dulbecco’s modified Eagle’s medium (DMEM) supplemented with glutamine (2 mM, Aurogene Rome, Italy), Hepes (25 mM, Aurogene Rome, Italy), penicillin (100 U/mL, Aurogene Rome, Italy), streptomycin (100 μg/mL, Aurogene Rome, Italy), fetal bovine serum (FBS, 10%, Aurogene Rome, Italy), and sodium pyruvate (1.2%, Aurogene Rome, Italy) (DMEM completed). The cells were plated at a density of 1 × 10^6 cells in 75 cm^2 culture flasks and maintained at 37 °C under 5% CO2 in a humidified incubator until 90% confluence. The culture medium was changed every 2 days. Before a confluent monolayer appeared, subculturing cell process was carried out. Cells (0.5 × 10^6 cells/mL) were pretreated for 2 h in the absence or presence of 28 (0.1–10 μM) and then stimulated, for 24 h, with lipopolysaccharide (LPS) from E. coli, Serotype 0111:B4, (10 μg/mL; 100 μL in DMEM completed with FBS, Sigma-Aldrich, Milan, Italy).[42] The supernatants were collected for the measurement of PGE2 levels by ELISA assay (Cayman Chemical, Vinci-Biochem, Vinci, Italy).

[3] = 10 mg/kg i.p. 0.5 and 2.5 h after first cerulein injection, 6 h
[4] = 10 mg/kg i.p., 6 h after first cerulein injection

O=C(Nc1ccc2c(c1)CCN2Cc1ccc(F)cc1)NC12C[C@H]3C[C@@H](C1)C[C@@H](C2)C3 [Compound 6, 1-((3S,5S,7S)-Adamantan-1-yl)-3-(1-(4-fluorobenzyl)indolin-5-yl)urea]
IC50 (5-LOX): 71 ± 16 nM

O=C(NCC12C[C@H]3C[C@@H](C1)C[C@@H](C2)C3)Nc1ccc2c(ccn2C(=O)c2ccc(F)cc2)c1 [Compound 36, 1-(((3R,5R,7R)-Adamantan-1-yl)methyl)-3-(1-(4-fluorobenzoyl)-1H-indol-5-yl)urea]
IC50 (5-LOX): > 1000 nM

CC(C)c1ccc(Cn2ccc3cc(NC(=O)NCC45C[C@H]6C[C@@H](C4)C[C@@H](C5)C6)ccc32)cc1 [Compound 28, 1-(((3R,5R,7R)-Adamantan-1-yl)methyl)-3-(1-(4-isopropylbenzyl)-1H-indol-5-yl)urea]
lung inflammation and neutrophilia [1, 3]: reduced
pancreatic injury (edema, cell infiltration, neutrophil numbers) [1, 3]: protective effect
serum ALT levels [1, 4]: decreased
serum AST levels [1, 4]: decreased
IC50 [2]: > 10000 nM
IC50 (5-LOX): > 1000 nM

O=C(NCC12C[C@H]3C[C@@H](C1)C[C@@H](C2)C3)Nc1ccc2c(ccn2Cc2ccc(F)cc2)c1 [Compound 27, 1-(((3R,5R,7R)-Adamantan-1-yl)methyl)-3-(1-(4-fluorobenzyl)-1H-indol-5-yl)urea]
IC50 (5-LOX): > 1000 nM

O=C(NCC12C[C@H]3C[C@@H](C1)C[C@@H](C2)C3)Nc1ccc2c(ccn2CCc2ccc(F)cc2)c1 [Compound 30, 1-(((3R,5R,7R)-Adamantan-1-yl)methyl)-3-(1-(4-fluorophenethyl)-1H-indol-5-yl)urea]
IC50 (5-LOX): > 1000 nM
